# Results as given in patent US20140023611A1 (priority 2010, published 2014).
# Target: T1, rat NaP2b (SLC34A2) (Rattus norvegicus, UniProt Q9JJ09)
# T1 construct: host or cells: HEK293
# T1 sequence (Q9JJ09 1-695): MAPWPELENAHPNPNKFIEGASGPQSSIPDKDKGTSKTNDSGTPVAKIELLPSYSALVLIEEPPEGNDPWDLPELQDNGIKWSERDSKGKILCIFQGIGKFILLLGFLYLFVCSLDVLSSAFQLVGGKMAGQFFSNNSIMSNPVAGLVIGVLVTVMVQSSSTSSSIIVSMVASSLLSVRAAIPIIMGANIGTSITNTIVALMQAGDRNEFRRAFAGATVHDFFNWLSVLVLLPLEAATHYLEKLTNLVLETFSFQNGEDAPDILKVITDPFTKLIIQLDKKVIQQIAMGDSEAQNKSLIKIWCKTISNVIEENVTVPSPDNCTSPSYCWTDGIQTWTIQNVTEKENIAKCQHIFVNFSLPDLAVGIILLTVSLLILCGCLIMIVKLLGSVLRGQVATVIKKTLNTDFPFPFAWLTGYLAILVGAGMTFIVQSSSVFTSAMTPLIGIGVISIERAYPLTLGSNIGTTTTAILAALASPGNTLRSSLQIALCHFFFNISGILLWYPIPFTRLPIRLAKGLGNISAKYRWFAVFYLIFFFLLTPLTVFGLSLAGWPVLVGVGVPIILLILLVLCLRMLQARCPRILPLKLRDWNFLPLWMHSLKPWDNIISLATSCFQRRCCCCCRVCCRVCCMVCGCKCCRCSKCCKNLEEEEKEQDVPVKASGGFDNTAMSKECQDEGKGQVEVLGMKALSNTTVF
# Assay: Inhibition of NaP2b-mediated Pi (33P) uptake in transfected HEK293 cells, rat NaP2b
# Type: cell-based
# Conditions: 33P Pi uptake, 0.1 mM phosphate, value given as pIC50 range
# Summary of the method: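 The cells transiently expressed NaP2b after Lipofectamine transfection. Each compound was run in duplicate over twelve concentrations, 0.1 nM–30 uM.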
row,IC50 [µM],SMILES
1,10 to 31.6,"COCCNC(=O)N1CCN(CCN(C)C(=O)c2cccc(C(=O)Nc3ccc(N4CCCCC4)cc3-c3cc(C(=O)NCc4cccc(C(F)(F)F)c4)ccn3)c2)CC1 [Example 207, N1-(2-(4-((2-methoxyethyl)carbamoyl)piperazin-1-yl)ethyl)-N3-(2-(4-((3-(trifluoromethyl)benzyl)carbamoyl)pyridin-2-yl)-4-(piperidin-1-yl)phenyl)-N1-methylisophthalamide]"
2,< 1,CCN(CC)c1ccc(NC(=O)c2cccc(CCCOCCOCCOCCOCCNC(=O)c3cscn3)c2)c(-c2cc(C(=O)N[C@H]3CCCc4ccccc43)ccn2)c1 [Example 326]
3,10 to 31.6,"O=C(O)CCSCc1cccc(C(=O)Nc2ccc(N3CCCCC3)cc2-c2cc(NC(=O)c3cccc(C(F)(F)F)c3)ccn2)c1 [Example 73, 3-((3-((4-(Piperidin-1-yl)-2-(4-(3-(trifluoromethyl)benzamido)pyridin-2-yl)phenyl)carbamoyl)benzyl)thio)propanoic acid]"
4,10 to 31.6,"O=C(CCSCc1cccc(C(=O)Nc2ccc(N3CCCCC3)cc2-c2cc(C(=O)NCc3cccc(C(F)(F)F)c3)ccn2)c1)NCCN1CCOCC1 [Example 4.16, 2-(2-(3-(((3-((2-Morpholinoethyl)amino)-3-oxopropyl)thio)methyl)benzamido)-5-(piperidin-1-yl)phenyl)-N-(3-(trifluoromethyl)benzyl)isonicotinamide]"
5,< 1,CCN(CC)c1ccc(NC(=O)c2cccc(CCCOCCOCCOCCOCCNC(=O)c3ccc(O)cc3)c2)c(-c2cc(C(=O)N[C@H]3CCCc4ccccc43)ccn2)c1 [Example 325]
6,1 to 7.94,"CCN(CC)c1ccc(NC(=O)c2cccc(C(=O)N(C)CCN3CCCN(C(=O)CCOCCOCCOCCOCCOCCOCCOCCOC)CC3)c2)c(-c2cc(C(=O)N[C@H]3CCCc4ccccc43)ccn2)c1 [Example 197, (S)—N^1-(2-(4-(2,5,8,11,14,17,20,23-octaoxahexacosan-26-oyl)-1,4-diazepan-1-yl)ethyl)-N^3-(4-(diethylamino)-2-(4-((1,2,3,4-tetrahydronaphthalen-1-yl)carbamoyl)pyridin-2-yl)phenyl)-N^1-methylisophthalamide]"
7,1 to 7.94,"CC(=O)N1CCCN(Cc2cccc(C(=O)Nc3ccc(N4CCCCC4)cc3-c3cc(C(=O)NCc4cccc(C(F)(F)F)c4)ccn3)n2)CC1 [Example 59, 6-((4-Acetyl-1,4-diazepan-1-yl)methyl)-N-(4-(piperidin-1-yl)-2-(4-((3-(trifluoromethyl)benzyl)carbamoyl)pyridin-2-yl)phenyl)picolinamide]"
8,1 to 7.94,"CN(CCN1CCOCC1)C(=O)c1cccc(C(=O)Nc2ccc(N3CCCCC3)cc2-c2cc(C(=O)NCc3cccc(C(F)(F)F)c3)ccn2)n1 [Example 11.1, N2-Methyl-N2-(2-morpholinoethyl)-N6-(4-(piperidin-1-yl)-2-(4-((3-(trifluoromethyl)benzyl)carbamoyl)pyridin-2-yl)phenyl)pyridine-2,6-dicarboxamide]"
9,1 to 7.94,O=C(NCc1cccc(C(F)(F)F)c1)c1ccnc(-c2cc(N3CCCCC3)ccc2NC(=O)c2cccc(C(=O)N3CCC(CCO)CC3)c2)c1 [Example 4.29]
10,1 to 7.94,O=C(O)CCSCc1cccc(C(=O)Nc2ccc(N3CCCCC3)cc2-c2cc(C(=O)NCc3ccc(F)c(OC(F)(F)F)c3)ccn2)c1 [Example 1.25]
11,1 to 7.94,"COc1ccc(C(F)(F)F)cc1CNC(=O)c1ccnc(-c2cc(N3CCCCC3)ccc2NC(=O)c2cccc(C(=O)N(C)CCN3CCOCC3)c2)c1 [Example 125, N1-(2-(4-((2-methoxy-5-(trifluoromethyl)benzyl)carbamoyl)pyridin-2-yl)-4-(piperidin-1-yl)phenyl)-N3-methyl-N3-(2-morpholinoethyl)isophthalamide]"
12,10 to 31.6,CN(CCNC(=O)OC(C)(C)C)C(=O)c1cccc(C(=O)Nc2ccc(N3CCCCC3)cc2-c2cc(C(=O)NCc3cccc(C(F)(F)F)c3)ccn2)c1 [Example 4.22]
13,10 to 31.6,"CC(=O)NC1CCN(C(=O)c2cccc(C(=O)Nc3ccc(N4CCCCC4)cc3-c3cc(C(=O)NCc4cccc(C(F)(F)F)c4)ccn3)c2)C1 (stereo in doubt) [Example 4.10, (S)-2-(2-(3-(3-Acetamidopyrrolidine-1-carbonyl)benzamido)-5-(piperidin-1-yl)phenyl)-N-(3-(trifluoromethyl)benzyl)isonicotinamide]"
14,10 to 31.6,"CN(CCOCCOCCOCCC(=O)O)Cc1cccc(C(=O)Nc2ccc(N3CCCCC3)cc2-c2cc(C(=O)NCc3cccc(C(F)(F)F)c3)ccn2)c1 [Example 43, 2-Methyl-1-(3-((4-(piperidin-1-yl)-2-(4-((3-(trifluoromethyl)benzyl)carbamoyl)pyridin-2-yl)phenyl)carbamoyl)phenyl)-5,8,11-trioxa-2-azatetradecan-14-oic acid]"
15,10 to 31.6,Nc1ccccc1CNC(=O)c1ccnc(-c2cc(N3CCCCC3)ccc2NC(=O)c2cccc(CSCCC(=O)O)c2)c1 [Example 1.11]
16,1 to 7.94,"CN(CCOCCOCCOCCC(=O)OC(C)(C)C)CCN(C)C(=O)c1cccc(C(=O)Nc2ccc(N3CCCCC3)cc2-c2cc(C(=O)N[C@H]3CCCc4ccccc43)ccn2)c1 [Example 329, tert-butyl 3-methyl-1-[N-methyl-1-(3-{[4-(piperidin-1-yl)-2-(4-{[(1S)-1,2,3,4-tetrahydronaphthalen-1-yl]carbamoyl}pyridin-2-yl)phenyl]carbamoyl}phenyl)formamido]-6,9,12-trioxa-3-azapentadecan-15-oate]"
17,1 to 7.94,O=C(O)CCSCc1cccc(C(=O)Nc2ccc(N3CCCCC3)cc2-c2cc(C(=O)NCc3cc(F)cc(C(F)(F)F)c3)ccn2)c1 [Example 1.29]
18,1 to 7.94,CN(CCN1C[C@H](O)C[C@H]1C(=O)N(C)CCOCCOCCOCCC(=O)OC(C)(C)C)C(=O)c1cccc(C(=O)Nc2ccc(N3CCCCC3)cc2-c2cc(C(=O)N[C@H]3CCCc4ccccc43)ccn2)c1 [Example 241]
19,10 to 31.6,"Cc1ccc(CNc2cc(-c3cc(N4CCCCC4)ccc3NC(=O)c3cccc(CSCCC(=O)O)c3)ncn2)cc1C [Example 3.4, 3-((3-((2-(6-((3,4-Dimethylbenzyl)amino)pyrimidin-4-yl)-4-(piperidin-1-yl)phenyl)carbamoyl)benzyl)thio)propanoic acid]"
20,10 to 31.6,"CN(C)CCC#Cc1cccc(C(=O)Nc2ccc(Cl)cc2-c2cc(NCc3cccc(C(F)(F)F)c3)ncn2)c1 [Example 67, N-(4-Chloro-2-(6-(3-(trifluoromethyl)benzylamino)pyrimidin-4-yl)phenyl)-3-(4-(dimethylamino)but-1-ynyl)benzamide 2,2,2-trifluoroacetate]"
21,10 to 31.6,CN(CCN1CCOCC1)C(=O)c1cccc(C(=O)Nc2ccc(N3CCCCC3)cc2-c2cc(C(F)(F)CCc3cccc(C(F)(F)F)c3)ccn2)c1 [Example 106]
22,1 to 7.94,"Cc1cc(C(=O)Nc2ccc(N3CCCCC3)cc2-c2cc(C(=O)NCc3cccc(C(F)(F)F)c3)ccn2)cc(C(=O)N(C)CCN2CCOCC2)c1 [Example 11.2, N1,5-Dimethyl-N1-(2-morpholinoethyl)-N3-(4-(piperidin-1-yl)-2-(4-((3-(trifluoromethyl)benzyl)carbamoyl)pyridin-2-yl)phenyl)isophthalamide]"
23,10 to 31.6,Cc1cccc(CN(C)C(=O)c2ccnc(-c3cc(N4CCCCC4)ccc3NC(=O)c3cccc(CSCCC(=O)O)c3)c2)c1 [Example 1.38]
